According to PubChem BioAssay AID1845203 (Molecular Pharmacology Branch, DTP, NCI, 2023):

Test system: G-401 tumor spheroids, viability % test/control
Test: Anticancer human tumor G-401 cell line growth inhibition;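 further: spheroids exposed to compound for 7 days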;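 on viability, T/C: 100% = DMSO vehicle-treated spheroids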
Conditions: spheroids with HUVEC and MSC; for IC50: curve of first compound; for viability, T/C: stronger effect = lower value
Method in brief: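 Complex tumor spheroids combined malignant cells with endothelial cells and mesenchymal stem cells. DNA-damaging drugs and DNA repair inhibitors were tested alone and in combination, at half-log dilutions down from clinical Cmax (top 10 microM if Cmax unknown), 0.25% DMSO final.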

COc1ccc([C@@H](O)c2cc(-c3ncnc4cc(N5CCOCC5)ccc34)c(F)cc2Cl)nn1 + COc1cc2c(cc1O)CCNC21CSC2c3c(OC(C)=O)c(C)c4c(c3C(COC1=O)N1C(O)C3Cc5cc(C)c(OC)c(O)c5C(C21)N3C)OCO4
IC50 (second compound 30 pM): 1 µM
IC50 (second compound 94.9 pM): 0.493 µM
IC50 (second compound 0.0003 µM): < 0.0316 µM
IC50 (second compound 0.000949 µM): < 0.0316 µM
IC50 (second compound 0.003 µM): < 0.0316 µM
viability, T/C (second compound 30 pM, first compound 0.0316 µM): 93.1%
viability, T/C (second compound 30 pM, first compound 0.1 µM): 99.2%
viability, T/C (second compound 30 pM, first compound 0.316 µM): 87.4%
viability, T/C (second compound 30 pM, first compound 1 µM): 50%
viability, T/C (second compound 30 pM, first compound 3.16 µM): 16.5%
viability, T/C (second compound 30 pM, first compound 10 µM): 9.53%
viability, T/C (second compound 94.9 pM, first compound 0.0316 µM): 83.8%
viability, T/C (second compound 94.9 pM, first compound 0.1 µM): 83.1%
viability, T/C (second compound 94.9 pM, first compound 0.316 µM): 63.6%
viability, T/C (second compound 94.9 pM, first compound 1 µM): 27.7%
viability, T/C (second compound 94.9 pM, first compound 3.16 µM): 9.96%
viability, T/C (second compound 94.9 pM, first compound 10 µM): 5.51%
viability, T/C (second compound 0.0003 µM, first compound 0.0316 µM): 40%
viability, T/C (second compound 0.0003 µM, first compound 0.1 µM): 29.8%
viability, T/C (second compound 0.0003 µM, first compound 0.316 µM): 18.6%
viability, T/C (second compound 0.0003 µM, first compound 1 µM): 8.98%
viability, T/C (second compound 0.0003 µM, first compound 3.16 µM): 3.1%
viability, T/C (second compound 0.0003 µM, first compound 10 µM): 0.75%
viability, T/C (second compound 0.000949 µM, first compound 0.0316 µM): 5.15%
viability, T/C (second compound 0.000949 µM, first compound 0.1 µM): 5.57%
viability, T/C (second compound 0.000949 µM, first compound 0.316 µM): 2.21%
viability, T/C (second compound 0.000949 µM, first compound 1 µM): 0.51%
viability, T/C (second compound 0.000949 µM, first compound 3.16 µM): 0.05%
viability, T/C (second compound 0.000949 µM, first compound 10 µM): 0.16%
viability, T/C (second compound 0.003 µM, first compound 0.0316 µM): 0.22%
viability, T/C (second compound 0.003 µM, first compound 0.1 µM): 0.25%
viability, T/C (second compound 0.003 µM, first compound 0.316 µM): 0.21%
viability, T/C (second compound 0.003 µM, first compound 1 µM): 0.21%
viability, T/C (second compound 0.003 µM, first compound 3.16 µM): 0.16%
viability, T/C (second compound 0.003 µM, first compound 10 µM): 0.25%

O=C(c1cc(Cc2n[nH]c(=O)c3ccccc23)ccc1F)N1CCN(C(=O)C2CC2)CC1 + Cn1nnc2c(C(N)=O)ncn2c1=O
IC50 (second compound 1 µM): 12.2 µM
IC50 (second compound 3.16 µM): 8.36 µM
IC50 (second compound 10 µM): 5.16 µM
IC50 (second compound 31.6 µM): 2.12 µM
IC50 (second compound 100 µM): 0.402 µM
viability, T/C (second compound 1 µM, first compound 0.0949 µM): 102%
viability, T/C (second compound 1 µM, first compound 0.3 µM): 102%
viability, T/C (second compound 1 µM, first compound 0.949 µM): 93.3%
viability, T/C (second compound 1 µM, first compound 3 µM): 83%
viability, T/C (second compound 1 µM, first compound 9.49 µM): 54%
viability, T/C (second compound 1 µM, first compound 30 µM): 32.9%
viability, T/C (second compound 3.16 µM, first compound 0.0949 µM): 94.4%
viability, T/C (second compound 3.16 µM, first compound 0.3 µM): 96.5%
viability, T/C (second compound 3.16 µM, first compound 0.949 µM): 96.7%
viability, T/C (second compound 3.16 µM, first compound 3 µM): 80.4%
viability, T/C (second compound 3.16 µM, first compound 9.49 µM): 46.6%
viability, T/C (second compound 3.16 µM, first compound 30 µM): 28.3%
viability, T/C (second compound 10 µM, first compound 0.0949 µM): 91.2%
viability, T/C (second compound 10 µM, first compound 0.3 µM): 95%
viability, T/C (second compound 10 µM, first compound 0.949 µM): 94.5%
viability, T/C (second compound 10 µM, first compound 3 µM): 66.7%
viability, T/C (second compound 10 µM, first compound 9.49 µM): 31.3%
viability, T/C (second compound 10 µM, first compound 30 µM): 20.4%
viability, T/C (second compound 31.6 µM, first compound 0.0949 µM): 91.6%
viability, T/C (second compound 31.6 µM, first compound 0.3 µM): 83.2%
viability, T/C (second compound 31.6 µM, first compound 0.949 µM): 79%
viability, T/C (second compound 31.6 µM, first compound 3 µM): 37.4%
viability, T/C (second compound 31.6 µM, first compound 9.49 µM): 19.5%
viability, T/C (second compound 31.6 µM, first compound 30 µM): 15.4%
viability, T/C (second compound 100 µM, first compound 0.0949 µM): 65.8%
viability, T/C (second compound 100 µM, first compound 0.3 µM): 58.1%
viability, T/C (second compound 100 µM, first compound 0.949 µM): 26.8%
viability, T/C (second compound 100 µM, first compound 3 µM): 17.9%
viability, T/C (second compound 100 µM, first compound 9.49 µM): 14.3%
viability, T/C (second compound 100 µM, first compound 30 µM): 13.3%
